Measurements published in US6013647A, “Benzoxazinedione derivatives, method of producing them and uses thereof” (Gruenenthal GmbH, priority 1997, dated 2000).
Where a SMILES comes first, the peptide text is derived from it. [ ]: non-standard residue; d: D form. Orn(N5-OH,N5-Ac) = CC(=O)N(O)CCC[C@H](N)C(=O)O

Legend:
E. coli = conditions: literature; cited from earlier work
B. subtilis = conditions: literature; cited from earlier work
[1] = e.g. thalassaemia; cited from earlier work
E. coli AB 2847 = assay: Siderophore efficacy, growth promotion of indicator mutant (DIN 58 940); assay type: cell-based; conditions: test substances 5 μg/test plate
Excerpt: (§1) The promotion of growth can be ascertained after the addition of the test substances as external siderophores. In the indicator mutants, the synthesis of the respective siderophores, e.g. pyoverdin, pyochelin, enterobactin, aerobactin or yersiniabactin, or the biosynthesis of aromatic compounds, is blocked, or there is a lack of receptors for enterobactin, pyochelin or pyoverdin and for other important components for the bacterial transport of iron (e.g. the membrane proteins Cir, Fiu, FepA and the TonB protein also). Under conditions where there is a lack of iron, these mutants therefore cannot grow or can only grow in a very retarded manner. In particular, the following indicator mutants were used: Pseudomonas aeruginosa PAO 6609, K 407, E. coli AB 2847, Salmonella typhimurium enb-7, TA 2700, and Yersinia enterocolitica WAH 5030. The controls used were ferrioxamine E for the Pseudomonas strains, ferrioxamine G for the Salmonella strains, and ferrichrome for the E. coli strains. The test substances were each employed in an amount of 5 μg/test plate.

[2] = system: Pseudomonas aeruginosa PAO 6609; assay: as above; assay type: cell-based; conditions: Pseud. aeruginosa PAO 6609; test substances 5 μg/test plate
Excerpt: as §1

[3] = system: Salmonella typhimurium TA 2700; assay: as above; assay type: cell-based; conditions: Salmonella TA 2700; test substances 5 μg/test plate
Excerpt: as §1

[4] = system: Salmonella typhimurium enb-7; assay: as above; assay type: cell-based; conditions: Salmonella enb-7; test substances 5 μg/test plate
Excerpt: as §1

[5] = system: Yersinia enterocolitica WAH 5030; assay: as above; assay type: cell-based; conditions: Y. enterocol. WAH 5030; test substances 5 μg/test plate
Excerpt: as §1

Row | Compound | Growth areas (diameter) of siderophore indicator strain (E. coli AB 2847) | Growth areas (diameter) of siderophore indicator strain [2] | Growth areas (diameter) of siderophore indicator strain [3] | Growth areas (diameter) of siderophore indicator strain [4] | further results
1 | O=C(N[C@@H](CO)C(=O)O)c1cccc(O)c1O [N-(2,3-dihydroxybenzoyl)-L-serine] | – | – | – | – | siderophore activity (E. coli): effective as a siderophore
2 | O=C(O)CNC(=O)c1cccc(O)c1O [N-(2,3-dihydroxybenzoyl)glycine] | – | – | – | – | siderophore activity (B. subtilis): siderophore for B. subtilis
3 | CC(=O)N(O)CCCCCNC(=O)CCC(=O)N(O)CCCCCNC(=O)CCC(=O)N(O)CCCCCN [desferrioxamine B] | – | – | – | – | use in diseases caused by an excess of iron [1]: successfully used in diseases which are caused by an excess of iron
4 | O=C(N[C@H]1COC(=O)[C@@H](NC(=O)c2cccc(O)c2O)COC(=O)[C@@H](NC(=O)c2cccc(O)c2O)COC1=O)c1cccc(O)c1O [enterobactin] | – | – | – | – | siderophore activity (E. coli): siderophore for E. coli
5 | CC(=O)N([O-])CCC[C@@H]1NC(=O)CNC(=O)CNC(=O)CNC(=O)[C@H](CCCN([O-])C(C)=O)NC(=O)[C@H](CCCN([O-])C(C)=O)NC1=O.[Fe+3] [ferrichrome, reference compound] (cyclo(GGG[Orn(N5-OH,N5-Ac)][Orn(N5-OH,N5-Ac)][Orn(N5-OH,N5-Ac)])) | 23 mm | – | – | – | –
6 | COC(=O)Oc1cccc2c(=O)n(CC(=O)O)c(=O)oc12 [substance 1, (8-methoxycarbonyloxy-2,4-dioxobenzoxazin-3-yl)-acetic acid] | 15 mm | 0 mm | 13 mm | 18 mm | –
7 | COC(=O)Oc1cccc2c(=O)n(CC(=O)NCC(=O)O)c(=O)oc12 [substance 2, (8-methoxycarbonyloxy-2,4-dioxobenzoxazin-3-yl)-acetyl-glycine] | 10 mm | 13 mm | 21 mm | 22 mm | –
8 | C[C@H](NC(=O)Cn1c(=O)oc2c(O)cccc2c1=O)C(=O)O [substance 4, (8-hydroxy-2,4-dioxobenzoxazin-3-yl)-acetyl-L-alanine] | 0 mm | 0 mm | 0 mm | 14 mm | –
9 | COC(=O)Oc1cccc2c(=O)n([C@@H](C)C(=O)O)c(=O)oc12 [substance 7, 2-L-(8-methoxycarbonyloxy-2,4-dioxobenzoxazin-3-yl)-propionic acid] | 0 mm | 0 mm | 0 mm | 10 mm | –
10 | COC(=O)Oc1cccc2c(=O)n(N=Cc3ccc(C(=O)O)cc3)c(=O)oc12 [substance 9, 4-[(8-methoxycarbonyloxy-2,4-dioxobenzoxazin-3-yl-imino)-methyl]-benzoic acid] | 24 mm | 0 mm | 16 mm | 0 mm | –
11 | ferrioxamine E [reference compound] | – | 35 mm | – | – | Growth areas (diameter) of siderophore indicator strain [5]: 40 mm
12 | ferrioxamine G [reference compound] | – | – | 20 mm | 38 mm | –
